The source of these data is US20240190880A1 (THE REGENTS OF THE UNIVERSITY OF MICHIGAN, priority 2021, published 2024).

Each structure is given as a SMILES string.

One experiment addresses T1, ER (Homo sapiens, UniProt P03372).
T1 construct: host or cells: T47D and MCF7 human breast cancer cells
T1 sequence (P03372 1-595): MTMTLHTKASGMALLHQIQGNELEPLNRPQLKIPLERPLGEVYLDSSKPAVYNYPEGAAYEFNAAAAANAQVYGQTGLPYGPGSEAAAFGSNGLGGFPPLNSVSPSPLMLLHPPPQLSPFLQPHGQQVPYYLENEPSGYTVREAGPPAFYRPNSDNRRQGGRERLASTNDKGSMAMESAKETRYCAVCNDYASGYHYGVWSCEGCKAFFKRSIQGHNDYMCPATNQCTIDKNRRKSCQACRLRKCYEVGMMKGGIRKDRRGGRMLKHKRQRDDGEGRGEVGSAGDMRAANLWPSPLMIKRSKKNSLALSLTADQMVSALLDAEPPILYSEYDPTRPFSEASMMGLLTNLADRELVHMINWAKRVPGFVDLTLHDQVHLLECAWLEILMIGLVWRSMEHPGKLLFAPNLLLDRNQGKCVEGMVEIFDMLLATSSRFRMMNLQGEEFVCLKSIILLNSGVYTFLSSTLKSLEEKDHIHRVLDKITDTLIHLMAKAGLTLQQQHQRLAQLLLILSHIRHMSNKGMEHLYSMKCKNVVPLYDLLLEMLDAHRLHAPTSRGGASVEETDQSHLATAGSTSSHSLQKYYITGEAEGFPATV
Briefly: ER degradation activity, in-cell western blot analysis in T47D cells. Particulars: 16 hours, Table A does not say which cell line (T47D or MCF7), read-out: Potency (DC50). In kind it is cell-based. As for the experimental part:
ER degradation activity was evaluated in the human breast cancer cell line T47D and MCF7 purchased from the American Type Culture Collection (ATCC), Manassas, VA, and maintained and cultured in Dulbecco's Modified Eagle's medium (DMEM) containing 10% fetal bovine serum, 1 unit/ml of penicillin and 1 μg/ml of streptomycin.
The protocol for the in-cell western blot analysis: a. seed cells in black-sided/clear bottom 96- or 384-well plates at 40,000 or 10,000 cells/well, overnight; b. add diluted compounds (final 0.5% DMSO), 16 hours. […] RT 2 h, gentle shaking. Negative control: cells plus secondary antibodies (no primary antibodies); e. wash ×4 with PBS+0.05-0.1% Tween 20, gentel shaking; f. anti-rabbit-680 and anti-mouse-800 (both 1:1000 in LiCor block+0.05% Tween20, RT 1 h, gentle shaking, no light. LI-COR: 0.2% to reduce background; g. wash×4 with PBS+0.05% Tween 20, gental shaking; h. add 100 μL or 25 μL of PBS to each well and read on CLX plate reader. The relative ER percentage in treated cells were obtained by comparing the values of treated wells to those in untreated and DMSO-treated wells as 100%.
With `C[C@@H]1Cc2cc(O)ccc2[C@@H](c2c(F)cc(N3CCC4(CCN(C(=O)CN5Cc6cc7c(cc6C5)C(=O)N(C5CCC(=O)NC5=O)C7)C4)C3)cc2F)N1CC(C)(F)F` (stereo partly drawn) [E 28, 3-(6-(2-(7-(4-((1S,3R)-2-(2,2-difluoropropyl)-6-hydroxy-3-methyl-1,2,3,4-tetrahydroisoquinolin-1-yl)-3,5-difluorophenyl)-2,7-diazaspiro[4.4]nonan-2-yl)-2-oxoethyl)-1-oxo-3,5,6,7-tetrahydropyrrolo[3,4-f]isoindol-2(1H)-yl)piperidine-2,6-dione], the half-maximal degradation concentration (DC50) – broadly, the midpoint of the concentration-degradation curve – is greater than 100 nM. Consider `O=C1CCC(N2C(=O)c3cc4c(cc3C2=O)CCN(CC(=O)N2CC3(CCN(c5ccc([C@@H]6c7ccc(O)cc7CC[C@@H]6c6ccc(F)cc6)cc5)CC3)C2)CC4)C(=O)N1` (stereo partly drawn) [E 184, 2-(2,6-dioxopiperidin-3-yl)-7-(2-(7-(4-((1R,2S)-2-(4-fluorophenyl)-6-hydroxy-1,2,3,4-tetrahydronaphthalen-1-yl)phenyl)-2,7-diazaspiro[3.5]nonan-2-yl)-2-oxoethyl)-6,7,8,9-tetrahydroazepino[4,5-f]isoindole-1,3(2H,5H)-dione], for which the 50% degradation concentration (DC50) is greater than 100 nM. For `O=C1CCC(N2C(=O)c3cc4c(cc3C2=O)CN(C(=O)CN2CCC3(CC2)CCN(c2ccc(C(=C(CCCl)c5ccccc5)c5ccc(O)cc5)cc2)CC3)C4)C(=O)N1` (stereo not drawn) [E 195, 6-(2-(9-(4-(4-chloro-1-(4-hydroxyphenyl)-2-phenylbut-1-en-1-yl)phenyl)-3,9-diazaspiro[5.5]undecan-3-yl)acetyl)-2-(2,6-dioxopiperidin-3-yl)-6,7-dihydropyrrolo[3,4-f]isoindole-1,3(2H,5H)-dione], the 50% degradation concentration (DC50) lay within 10 to 100 nM.

For `C[C@@H]1Cc2c([nH]c3ccccc23)[C@@H](c2c(F)cc(N3CCC(CN4CCCC(N5Cc6cc7c(cc6C5)C(=O)N(C5CCC(=O)NC5=O)C7=O)CC4)CC3)cc2F)N1CC(F)F` (stereo partly drawn) [E 130, 6-(1-((1-(4-((1R,3R)-2-(2,2-difluoroethyl)-3-methyl-2,3,4,9-tetrahydro-1H-pyrido[3,4-b]indol-1-yl)-3,5-difluorophenyl)piperidin-4-yl)methyl)azepan-4-yl)-2-(2,6-dioxopiperidin-3-yl)-6,7-dihydropyrrolo[3,4-f]isoindole-1,3(2H,5H)-dione], the 50% degradation concentration (DC50) is less than 10 nM.

With `O=C1CCC(N2C(=O)c3cc4c(cc3C2=O)CCN(CC(=O)N2CCC3(CC2)CCN(c2ccc([C@@H]5c6ccc(O)cc6CC[C@@H]5c5ccccc5)cc2)CC3)CC4)C(=O)N1` (stereo partly drawn) [E 166, 2-(2,6-dioxopiperidin-3-yl)-7-(2-(9-(4-((1R,2S)-6-hydroxy-2-phenyl-1,2,3,4-tetrahydronaphthalen-1-yl)phenyl)-3,9-diazaspiro[5.5]undecan-3-yl)-2-oxoethyl)-6,7,8,9-tetrahydroazepino[4,5-f]isoindole-1,3(2H,5H)-dione], the half-maximal degradation concentration (DC50) was greater than 100 nM.

`C[C@@H]1Cc2c([nH]c3ccccc23)[C@@H](c2c(F)cc(N3CCC(N4CCN(C(=O)CN5Cc6cc7c(cc6C5)C(=O)N(C5CCC(=O)NC5=O)C7=O)CC4)CC3)cc2F)N1CC(F)F` (stereo partly drawn) [E 109]: the DC50 is less than 10 nM. Same read-out and setting: for `O=C1CCC(N2C(=O)c3cc4c(cc3C2=O)CN(CC(=O)N2CCC3(CC2)CCN(c2c(F)cc([C@@H]5c6ccc(O)cc6CC[C@@H]5c5ccccc5)cc2F)CC3)C4)C(=O)N1` (mixture of isomers) [E 175, Rac-6-(2-(9-(2,6-difluoro-4-((1R,2S)-6-hydroxy-2-phenyl-1,2,3,4-tetrahydronaphthalen-1-yl)phenyl)-3,9-diazaspiro[5.5]undecan-3-yl)-2-oxoethyl)-2-(2,6-dioxopiperidin-3-yl)-6,7-dihydropyrrolo[3,4-f]isoindole-1,3(2H,5H)-dione] the value was greater than 100 nM. Turning to `O=C1CCC(N2C(=O)c3cc4c(cc3C2=O)CN(CC(=O)N2CCC3(CC2)CCN(c2cnc([C@@H]5c6ccc(O)cc6CC[C@@H]5c5ccccc5)cn2)CC3)C4)C(=O)N1` (mixture of isomers) [E 304, Rac-2-(2,6-dioxopiperidin-3-yl)-6-(2-(9-(5-((1S,2S)-6-hydroxy-2-phenyl-1,2,3,4-tetrahydronaphthalen-1-yl)pyrazin-2-yl)-3,9-diazaspiro[5.5]undecan-3-yl)-2-oxoethyl)-6,7-dihydropyrrolo[3,4-f]isoindole-1,3(2H,5H)-dione], the half-maximal degradation concentration (DC50) was greater than 100 nM. The same measure, in the same setting: the value for `C[C@@H]1Cc2c([nH]c3ccccc23)[C@@H](c2c(F)cc(N3CCC(CN4CCC(C(=O)N5Cc6cc7c(cc6C5)C(=O)N(C5CCC(=O)NC5=O)C7=O)CC4)CC3)cc2F)N1CC(F)F` (stereo partly drawn) [E 238, 6-(1-((1-(4-((1R,3R)-2-(2,2-difluoroethyl)-3-methyl-2,3,4,9-tetrahydro-1H-pyrido[3,4-b]indol-1-yl)-3,5-difluorophenyl)piperidin-4-yl)methyl)piperidine-4-carbonyl)-2-(2,6-dioxopiperidin-3-yl)-6,7-dihydropyrrolo[3,4-f]isoindole-1,3(2H,5H)-dione] was greater than 100 nM; that for `O=C1CCC(N2C(=O)c3cc4c(cc3C2=O)CN(C(=O)[C@H]2CC[C@@H](N3CC(Oc5ccc([C@H]6c7ccc(O)cc7CC[C@H]6c6ccccc6)cc5)C3)CC2)C4)C(=O)N1` (stereo partly drawn) [E 389, 2-(2,6-dioxopiperidin-3-yl)-6-((1R,4s)-4-(3-(4-((1S,2R)-6-hydroxy-2-phenyl-1,2,3,4-tetrahydronaphthalen-1-yl)phenoxy)azetidin-1-yl)cyclohexane-1-carbonyl)-6,7-dihydropyrrolo[3,4-f]isoindole-1,3(2H,5H)-dione] was greater than 100 nM.

As to `C[C@@H]1Cc2c([nH]c3ccccc23)[C@@H](c2c(F)cc(N3CC4(CN(C(=O)CN5Cc6cc7c(cc6C5)C(=O)N(C5CCC(=O)NC5=O)C7)C4)C3)cc2F)N1CC(F)F` (stereo partly drawn) [E 71, 3-(6-(2-(6-(4-((1R,3R)-2-(2,2-difluoroethyl)-3-methyl-2,3,4,9-tetrahydro-1H-pyrido[3,4-b]indol-1-yl)-3,5-difluorophenyl)-2,6-diazaspiro[3.3]heptan-2-yl)-2-oxoethyl)-1-oxo-3,5,6,7-tetrahydropyrrolo[3,4-f]isoindol-2(1H)-yl)piperidine-2,6-dione], the DC50 was less than 10 nM. As for `O=C1CCC(N2C(=O)c3cc4c(cc3C2=O)CN(CC2(F)CN(CC3CCN(c5ccc([C@@H]6c7ccc(O)cc7CC[C@@H]6c6ccccc6)cc5)CC3)C2)C4)C(=O)N1` (stereo partly drawn) [E 212, 2-(2,6-dioxopiperidin-3-yl)-6-((3-fluoro-1-((1-(4-((1R,2S)-6-hydroxy-2-phenyl-1,2,3,4-tetrahydronaphthalen-1-yl)phenyl)piperidin-4-yl)methyl)azetidin-3-yl)methyl)-6,7-dihydropyrrolo[3,4-f]isoindole-1,3(2H,5H)-dione], the DC50 is greater than 100 nM. For `C[C@@H]1Cc2c([nH]c3ccccc23)[C@@H](c2ccc(C3CCC(C(=O)N4CCC(N5Cc6cc7c(cc6C5)C(=O)N(C5CCC(=O)NC5=O)C7=O)CC4)CC3)cc2F)N1CC(F)F` (stereo partly drawn) [E 312, 6-(1-(4-(4-((1R,3R)-2-(2,2-difluoroethyl)-3-methyl-2,3,4,9-tetrahydro-1H-pyrido[3,4-b]indol-1-yl)-3-fluorophenyl)cyclohexane-1-carbonyl)piperidin-4-yl)-2-(2,6-dioxopiperidin-3-yl)-6,7-dihydropyrrolo[3,4-f]isoindole-1,3(2H,5H)-dione], the DC50 lay within 10 to 100 nM.

The same experiment, now with this note: compounds 16 hours, Table A does not say whether T47D or MCF7, read-out: Potency (DC50).
Regarding `C[C@@H]1Cc2c([nH]c3ccccc23)[C@@H](c2cnc(N3CCC4(CC3)CC(CN3Cc5cc6c(cc5C3)C(=O)N(C3CCC(=O)NC3=O)C6=O)C4)nc2)N1CC(F)F` (stereo partly drawn) [E 474, 6-((7-(5-((1R,3R)-2-(2,2-difluoroethyl)-3-methyl-2,3,4,9-tetrahydro-1H-pyrido[3,4-b]indol-1-yl)pyrimidin-2-yl)-7-azaspiro[3.5]nonan-2-yl)methyl)-2-(2,6-dioxopiperidin-3-yl)-6,7-dihydropyrrolo[3,4-f]isoindole-1,3(2H,5H)-dione], the 50% degradation concentration (DC50) lay within 10 to 100 nM. As for `C[C@@H]1Cc2cc(O)ccc2[C@@H](c2ccc(C3=CCC4(CC3)CCN(C(=O)CN3Cc5cc6c(cc5C3)C(=O)N(C3CCC(=O)NC3=O)C6=O)CC4)cc2)N1CC(F)F` (stereo partly drawn) [E 448, 6-(2-(9-(4-((1R,3R)-2-(2,2-difluoroethyl)-6-hydroxy-3-methyl-1,2,3,4-tetrahydroisoquinolin-1-yl)phenyl)-3-azaspiro[5.5]undec-8-en-3-yl)-2-oxoethyl)-2-(2,6-dioxopiperidin-3-yl)-6,7-dihydropyrrolo[3,4-f]isoindole-1,3(2H,5H)-dione], the DC50 is greater than 100 nM.
